Series [1] has as its system BC4-M5M12 × PHA155 hybrid. As to the kind of experiment: Test E injury to sunflower hybrid. Format: in vivo. Put shortly:
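Hybrid BC4-M5M12 × PHA155, three replications; herbicides given as seed coatings, pre-emergence broadcast sprays two days after sowing at high rates, or post-emergence at 4-6, 6-8 (high and low rates) and 8-12 leaf stages matching early, mid and late Orobanche attachment. Other ALS inhibitors included.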

A further series has as its system Chenopodium album. The experiment in a line: Test H weed control, field plots. Format: in vivo. To be noted: 36 days after treatment; g a.i./ha: tribenuron-methyl 22.5, metsulfuron-methyl 6, ethametsulfuron-methyl 16, imazapyr isopropylamine salt 15, aclonifen 1200. The text has this: (§1) Field plots (2 m×5 m) were tilled to remove weed cover and then seeded in rows with the following weeds: Capsella bursa pastoris, Atriplex patula, Chenopodium album, Stellaria media, Mecurialis annua, Polygonum persicaria, Amaranthus retroflexus, Polygonum convolvulus, Polygonum aviculare, Viola arvensis, Matricaria inodora, Anagallis arvensis, Sinapis arvensis, Setaria viridis, Solanum nigrum and Echinochloa crusgalli. After 21 days from sowing, at which time the weeds had reached the 2- to 6-leaf stage, herbicide treatments were applied to the plots according to a complete randomized block design, with each herbicide treatment triply replicated. The herbicides were sprayed using standard flat fan nozzles moved perpendicular to the sown lines using water spray volumes of about 296 L/ha.
(§2) Assessments of weed control were made by visual inspection 36 days after herbicide treatment. A visual rating system was used based on a percentage scale from 0 to 100% compared to an adjacent untreated control plot. On this scale 0 represents no visual differences relative to an untreated control and 100 represents complete control of the given weed species.

Another series has as its system Stellaria media. The experiment in a line: Test H weed control, field plots. It is filed as in vivo. To be noted: 36 days after treatment; g a.i./ha: tribenuron-methyl 22.5, metsulfuron-methyl 6, ethametsulfuron-methyl 16, imazapyr isopropylamine salt 15, aclonifen 1200.
Text: as §1, §2

A further series deals with M5M7. As to the kind of experiment: Test B greenhouse phytotoxicity, M5M7. It is filed as in vivo, sunflower. To be noted: in vivo. Put shortly: (§3)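 Formulated ALS-inhibiting herbicides sprayed post-emergence at the 4-leaf stage on homozygous mutant sunflower inbreds (M5 maintainers and BC4 male-sterile back-crosses) in the greenhouse, at rates commonly used in registered crops. Two replicates; crop injury rated as % phytotoxicity, 0% meaning no injury.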

In another series the test system is M5M12. As to the kind of experiment: Test B greenhouse phytotoxicity, M5M12. To be noted: in vivo. Format: in vivo, sunflower. Put shortly:
as §3

The test system of a further series is BC4-M5M7. As to the kind of experiment: Test B greenhouse phytotoxicity, BC4-M5M7. To be noted: in vivo. Format: in vivo, sunflower. Put shortly:
as §3

Another series concerns BC4-M5M11. As to the kind of experiment: Test B greenhouse phytotoxicity, BC4-M5M11. To be noted: in vivo. It is filed as in vivo, sunflower. The method, boiled down:
as §3

The subject of the next series is BC4-M5M12. The experiment in a line: Test B greenhouse phytotoxicity, BC4-M5M12. Format: in vivo, sunflower. To be noted: in vivo. Put shortly:
as §3

The next series deals with Orobanche cumana. The experiment in a line: Test D control of Orobanche cumana in resistant sunflower. Format: in vivo. On the procedure:
The purpose of this test was to evaluate the efficacy of tribenuron-methyl to control Orobanche cumana before and after crop emergence from the soil. Various herbicide treatments were evaluated using six replications of each treatment. Treatments investigated the following modes of application: seed coating, pre-emergence soil incorporation, bare-ground pre-emergence broadcast application, and post-emergence broadcast application. All herbicide treatments used formulated herbicide compositions.
For seed coating treatments, 3 mg of Orobanche cumana seeds were added to each pot containing a growing mixture of 60% dry loamy soil, 20% sand and 20% of peat, the growing mixture having an organic matter content of 4.2% and a pH of 8.05. The pots were placed in plastic trays and watered to the extent of 25% of soil weight. Pots were kept in a greenhouse for 8 to 10 days at about 24° C. during the day and 20° C. at night. Eight seeds of BC4-M5M12 sunflower resistant mutant were sown manually in the pots contaminated with Orobanche, at the end of the incubation period of the parasitic weed seeds.
Seeds were first coated using a table-top laboratory fluid bed equipped with a coating device (“Strea 1 Aerocoater” made by Niro Aeromatic, Haupstrasse 145, CH-4416 Bubendorf, Switzerland) and a coating solution containing about 23% Sepiret 8330® (coating composition sold by Seppic, 75 quai d'Orsay Paris 75321 cedex 07 France) and 77% water at the rate of 3 L/100 Kg of seeds. After coating, the seeds were dried in a fluid bed drier at 35° C. […] The coated seeds were then dried at ambient temperature and stored until sowing.
The soil was then thoroughly mixed by hand and dispensed into the pots. The quantities of tribenuron-methyl used in these treatments are expressed in g a.i./ha based on the soil volume and pot dimensions. The quantities applied were 11.25 and 22.5 g a.i./ha.
The effect of the various treatments was evaluated 35 days after sowing. The sunflower roots were cleaned by washing in water, and the presence of Orobanche nodules was determined visually and by weighing root wet mass in comparison to check plants free of Orobanche infestation. […] The nodules caused by Orobanche increased root weight, and a correlation (r=0.7) was found between visual scores and weight measurements. Thus the weighing technique could be used to corroborate visual efficacy scorings. Orobanche emergence was also scored but found to be less useful to evaluate treatment efficiency at the evaluation timing of this test.

The values below come from US6822146B2, “Sulfonylurea-tolerant sunflower line M7” (priority 2000, dated 2004).

For `COC(=O)c1cccc(C)c1S(=O)(=O)NC(=O)Nc1nc(OCC(F)(F)F)nc(N(C)C)n1` [Triflusulfuron-methyl, triflusulfuron-methyl], the “sunflower phytotoxicity” value in series [1] (Test E rates) is “transitory phytotoxicity symptoms”. Further, in series [1] (post-emergence 18.75 g a.i./ha at T2), the Injury turned out to be 0%.
Turning to `COC(=O)c1ccccc1S(=O)(=O)NC(=O)Nc1nc(C)nc(OC)n1` [Metsulfuron-methyl, metsulfuron-methyl], in [1] (in vivo), the “sunflower phytotoxicity” value was “more likely to cause sunflower phytotoxicity”. Also, in the series with Chenopodium album, the “weed control, visual rating: Chenopodium album” value was determined as 100%. For the same molecule, the “weed control, visual rating: Stellaria media” value with Stellaria media was 100%.
For `COC(=O)c1ccccc1S(=O)(=O)NC(=O)N(C)c1nc(C)nc(OC)n1` [Tribenuron-methyl, tribenuron-methyl], the “Maximum Phytotoxicity” value in the series on M5M7 is 12.5%; with M5M12, 7.5%; in the series on BC4-M5M7, 10%; with BC4-M5M11, 17.5%; in the series with BC4-M5M12, 20%. The Control stood at 63% in the series with Orobanche cumana (post-emergence broadcast spray 2.25 g a.i./ha); 78% in the series with Orobanche cumana (pre-emergence broadcast spray 11.25 g a.i./ha + post-emergence broadcast spray 11.25 g a.i./ha); 40% in the series on Orobanche cumana (pre-emergence broadcast spray 22.5 g a.i./ha); 55% in the series on Orobanche cumana (pre-emergence soil incorporation 11.25 g a.i./ha); 72% with Orobanche cumana (pre-emergence soil incorporation 22.5 g a.i./ha); 63% in the series with Orobanche cumana (seed coating 0.00001 mg a.i./g + post-emergence broadcast spray 2.25 g a.i./ha). For the same molecule, the Control stood at 70% in the series on Orobanche cumana (seed coating 0.00001 mg a.i./g + post-emergence broadcast spray 11.25 g a.i./ha); 8% in the series with Orobanche cumana (seed coating 0.00001 mg a.i./g, host BC4-M5M12, 35 days after sowing); 85% with Orobanche cumana (seed coating 0.1 mg a.i./g + post-emergence broadcast spray 2.25 g a.i./ha); 80% in the series with Orobanche cumana (seed coating 0.1 mg a.i./g + post-emergence broadcast spray 11.25 g a.i./ha); 37% in the series on Orobanche cumana (seed coating 0.1 mg a.i./g, host BC4-M5M12, 35 days after sowing); 82% in the series with Orobanche cumana (seed coating 10 mg a.i./g + post-emergence broadcast spray 2.25 g a.i./ha). Besides, the Control in the series on Orobanche cumana (seed coating 10 mg a.i./g + post-emergence broadcast spray 11.25 g a.i./ha) came to 89%. Further, the “weed control, visual rating: Chenopodium album” value in the series with Chenopodium album is 100%. Moreover, the “weed control, visual rating: Stellaria media” value in the series with Stellaria media turned out to be 100%.
